The values that follow are results of earlier work, collected in patent publication US20070032466A1, “Drug containing chymase inhibitor as the active ingredient” (TEIJIN PHARMA LIMITED, priority 2003, published 2007).

The test system of data set [1] is canine model of myocardial infarction. The conditions noted are these: oral administration.
In the next data set the test system is mouse allergy model. The conditions noted are these: oral administration.
Another data set deals with new onset of diabetes. The conditions noted are these: large scale clinical tests (CARPPP, HOPE, LIFE studies).
Data set [2] has as its system hamster model of myocardial infarction. The conditions noted are these: administrated alone.

Turning to `O=CNc1cnc(-c2ccccc2)n(CC(=O)NC(Cc2ccccc2)C(=O)C(=O)CCCOc2ccccn2)c1=O` (stereo not drawn) [III-I], in data set [1], the “effectiveness in a canine model of myocardial infarction” value is listed as “effective”.

As for `COC(=O)c1ccc2oc(C(=O)C(Cc3ccccc3)NC(=O)Cn3c(-c4ccccc4OC)ncc(N)c3=O)nc2c1` (stereo not drawn) [IV-I], the “activity as a chymase inhibitor in a mouse allergy model” value in the data set on mouse allergy model is reported as “exhibit activity as a chymase inhibitor”.

As to `CCOC(=O)[C@H](CCc1ccccc1)N[C@@H](C)C(=O)N1[C@H](C(=O)O)C[C@@H]2CCC[C@@H]21` [ramipril], the “suppression of new onset of diabetes” value in the data set on new onset of diabetes is reported as “suppress new onset of diabetes”.

On to `C[C@H](CS)C(=O)N1CCC[C@H]1C(=O)O` [captopril], for which, in the data set with new onset of diabetes, the “suppression of new onset of diabetes” value is recorded as “suppress new onset of diabetes”.

For `CCOc1ccccc1CC1C(=O)N(C(=O)NC(c2ccc(C)cc2)c2ccc(C)cc2)C1C(=O)c1ccc(C(=O)O)cc1` (stereo not drawn) [4-[1-{[bis(4-methylphenyl)methyl]carbamoyl}-3-(2-ethoxybenzyl)-4-oxoazetizin-2-yloyl]benzoic acid], in data set [2], the “effect on a hamster model of myocardial infarction” value was “has an effect”.

For the compound `CCCCc1nc(Cl)c(CO)n1Cc1ccc(-c2ccccc2-c2nn[nH]n2)cc1` [losartan], in the data set with new onset of diabetes, the “suppression of new onset of diabetes” value is “suppress new onset of diabetes”.
